This assay deals with C3H10T1/2 cells. In words: C3H assay: differentiation of C3H10T1/2 cells by mSHH, measurement of alkaline phosphatase. The format is cell-based, mouse. Conditions: Mus musculus, C3H 10T1/2; C3H10T1/2 cells stimulated with mSHH for 72 hours; alkaline phosphatase activity; read-out: IC50 Ranges.
One may read the IC50 as the concentration that gives 50% inhibition. For `O=C(NC1(C(F)(F)F)CC1)N1CC(S(=O)(=O)N2CCC(c3ccncc3)CC2)C1` [Compound 265, 3-(4-pyridin-4-ylpiperidin-1-yl)sulfonyl-N-[1-(trifluoromethyl)-cyclopropyl] azetidine-1-carboxamide], the IC50 fell in the range of 100 to 1000 nM.

As for `O=C(OCC1CCCCC1)N1CC(S(=O)(=O)N2CCC(c3ccncc3)CC2)C1` [Compound 266, cyclohexylmethyl 3-(4-pyridin-4-ylpiperidin-1-yl)sulfonylaze-tidine-1-carboxylate], the IC50 lay in the range of 100 to 1000 nM.

With `Cc1ccc(-n2cc(C3CCN(S(=O)(=O)C4CNC4)CC3)c3cccnc32)nc1` [Compound 267, 3-[1-(azetidin-3-ylsulfonyl)piper-idin-4-yl]-1-(5-methylpyridin-2-yl)pyrrolo [2,3-b]pyridine], the IC50 was in the range of 1000 to 10000 nM.

`O=S(=O)(C1CN(c2ccccn2)C1)N1CCC(c2ccncc2)CC1` [Compound 268, 2-[3-(4-pyridin-4-ylpiperidin-1-yl)sulfonylaze-tidin-1-yl]pyridine]: the IC50 was in the range of 1000 to 10000 nM.

For `O=S(=O)(C1CN(c2cccnc2)C1)N1CCC(c2c[nH]c3ncccc23)CC1` [Compound 270, 3-[1-(1-pyridin-3-ylazetidin-3-yl)-sulfonylpiper-idin-4-yl]-1H-pyrrolo[2,3-b]pyridine], the IC50 was 100 to 1000 nM.

Consider `CN(C(=O)N1CCC(S(=O)(=O)N2CCC(c3c[nH]c4ncccc34)CC2)C1)C(C)(C)C` (centres unmarked) [Compound 272, N-tert-butyl-N-methyl-3-[4-(1H-pyrrolo[2,3-b]pyridin-3-yl)piperidin-1-yl]sulfonylpyrr olidine-1-carboxamide], for which the IC50 was 10 to 100 nM.

`COC(=O)[C@H]1C[C@@H](S(=O)(=O)N2CCC(c3c[nH]c4ncccc34)CC2)C1` [Compound 273]: the IC50 is 100 to 1000 nM.

Regarding `COc1cccc(NC(=O)N2CC(S(=O)(=O)N3CCC(c4c[nH]c5ncccc45)CC3)C2)c1` [Compound 275, N-(3-methoxyphenyl)-3-[4-(1H-pyrrolo[2,3-b]pyridin-3-yl)piperidin-1-yl]sulfonylaze-tidine-1-carboxamide], the IC50 was in the range of 100 to 1000 nM.

For `Cc1ccc(NC(=O)N2CC(S(=O)(=O)N3CCC(c4c[nH]c5ncccc45)CC3)C2)cc1` [Compound 276, N-(4-methylphenyl)-3-[4-(1H-pyrrolo[2,3-b]pyridin-3-yl)piperidin-1-yl]sulfonylaze-tidine-1-carboxamide], the IC50 lay in the range of 100 to 1000 nM.

As for `Cc1ccc(F)cc1NC(=O)N1CC(S(=O)(=O)N2CCC(c3c[nH]c4ncccc34)CC2)C1` [Compound 277, N-(5-fluoro-2-methylphenyl)-3-[4-(1H-pyrrolo[2,3-b]pyridin-3-yl)piperidin-1-yl]sulfonylaze-tidine-1-carboxamide], the IC50 was 10 to 100 nM.

In the case of `CN(C(=O)C1CC(S(=O)(=O)N2CCC(c3c[nH]c4ncccc34)CC2)C1)C(C)(C)C` (centres unmarked) [Compound 278, N-tert-butyl-N-methyl-3-[4-(1H-pyrrolo [2,3-b]pyridin-3-yl)piperidin-1-yl]sulfonylcycl obutane-1-carboxamide], the IC50 is 10 to 100 nM.

Take `COc1cccc(N(C)C(=O)N2CC(S(=O)(=O)N3CCC(c4c[nH]c5ncccc45)CC3)C2)c1` [Compound 279, N-(3-methoxyphenyl)-N-methyl-3-[4-(1H-pyrrolo [2,3-b]pyridin-3-yl)piperidin-1-yl]sulfonylaze-tidine-1-carboxamide]: the IC50 fell in the range of 1000 to 10000 nM.

As for `O=C(Oc1ccc(F)cc1)N1CC(S(=O)(=O)N2CCC(c3ccncc3)CC2)C1` [Compound 280, (4-fluorophenyl) 3-(4-pyridin-4-ylpiperidin-1-yl) sulfonylaze-tidine-1-carboxylate], the IC50 was 1000 to 10000 nM.

On to `COc1cccc(NC(=O)N2CC(S(=O)(=O)N3CCC(c4ccncc4)CC3)C2)c1` [Compound 281, N-(3-methoxyphenyl)-3-(4-pyridin-4-ylpiperidin-1-yl)sulfonylaze-tidine-1-carboxamide], for which the concentration for half-maximal inhibition (IC50) was 1000 to 10000 nM.

As for `Cc1ccc(NC(=O)N2CC(S(=O)(=O)N3CCC(c4ccncc4)CC3)C2)cc1` [Compound 282, N-(4-methylphenyl)-3-(4-pyridin-4-ylpiperidin-1-yl)sulfonylaze-tidine-1-carboxamide], the IC50 was in the range of 1000 to 10000 nM.

Regarding `CC(C)(C)OC(=O)N1CC(S(=O)(=O)N2CCC(c3nc4ccccc4s3)CC2)C1` [Compound 283, tert-butyl 3-[4-(1,3-benzothiazol-2-yl)piperidin-1-yl]sulfonylaze-tidine-1-carboxylate], the IC50 fell in the range of 100 to 1000 nM.

Take `Cc1ccc(F)cc1NC(=O)N1CC(S(=O)(=O)N2CCC(c3ccncc3)CC2)C1` [Compound 286, N-(5-fluoro-2-methylphenyl)-3-(4-pyridin-4-ylpiperidin-1-yl)sulfonylaze-tidine-1-carboxamide]: the 50% inhibitory concentration (IC50) lay within 1000 to 10000 nM.

Take `O=S(=O)(C1CCC1)N1CCC(c2c[nH]c3ncccc23)CC1` [Compound 287, 3-(1-cyclobutylsulfonylpiperidin-4-yl)-1H-pyrrolo[2,3-b]pyridine]: the concentration for half-maximal inhibition (IC50) is 1000 to 10000 nM.

On to `CN(C(=O)[C@H]1C[C@@H](S(=O)(=O)N2CCC(c3c[nH]c4ncccc34)CC2)C1)C(C)(C)C` [Compound 289, cis-N-tert-butyl-N-methyl-3-[[4-(1H-pyrrolo[2,3-b]pyridin-3-yl)-1-piperidyl]sulfonyl]cyclobutanecarboxamide], for which the IC50 lay in the range of 10 to 100 nM.

`CN(C(=O)[C@H]1C[C@H](S(=O)(=O)N2CCC(c3c[nH]c4ncccc34)CC2)C1)C(C)(C)C` [Compound 290, trans-N-tert-butyl-N-methyl-3-[[4-(1H-pyrrolo[2,3-b]pyridin-3-yl)-1-piperidyl]sulfonyl]cyclobutanecarboxamide]: the half-inhibitory concentration (IC50) lay within 100 to 1000 nM.

For the molecule `O=C(NCCS(=O)(=O)N1CCC(c2ccncc2)CC1)OC1CCCCC1` [Compound 291, cyclohexyl N-[2-(4-pyridin-4-ylpiperidin-1-yl)sulfonylethyl] carbamate], the IC50 lay within 1000 to 10000 nM.

On to `O=C(NC1(C(F)(F)F)CC1)N1CC(S(=O)(=O)N2CCC(c3nc4ccccc4s3)CC2)C1` [Compound 293, 3-[4-(1,3-benzothiazol-2-yl)piperidin-1-yl]sulfonyl-N-[1-(trifluoromethyl)cyclopropyl] azetidine-1-carboxamide], for which the IC50 was in the range of 10 to 100 nM.

Regarding `Cc1noc(C)c1NC(=O)[C@H]1C[C@@H](S(=O)(=O)N2CCC(c3ccncc3)CC2)C1` [Compound 295, cis-N-(3,5-dimethyl-1,2-oxazol-4-yl)-3-(4-pyridin-4-ylpiperidin-1-yl) sulfonylcyclobutane-1-carboxamide], the half-inhibitory concentration (IC50) lay within 1000 to 10000 nM.

Turning to `O=C(NC1(C(F)(F)F)CC1)[C@H]1C[C@@H](S(=O)(=O)N2CCC(c3c[nH]c4ncccc34)CC2)C1` [Compound 297, cis-3-[4-(1H-pyrrolo[2,3-b]pyridin-3-yl)piperidin-1-yl]sulfonyl-N-[1-(trifluoromethyl)cyclopropyl] cyclobutane-1-carboxamide], the IC50 fell in the range of 10 to 100 nM.

`CC(C)(C)OC(=O)N1CC(S(=O)(=O)N2CCC(c3nc4ccccc4[nH]3)CC2)C1` [Compound 299, tert-butyl 3-[4-(1H-benzimidazol-2-yl)piperidin-1-yl]sulfonylaze-tidine-1-carboxylate]: the IC50 fell in the range of 1000 to 10000 nM.

Consider `O=C(NC1(C(F)(F)F)CC1)N1CC(S(=O)(=O)N2CCC(c3nc4ccccc4[nH]3)CC2)C1` [Compound 300, 3-[4-(1H-benzimidazol-2-yl)piperidin-1-yl]sulfonyl-N-[1-(trifluoromethyl)cyclopropyl] azetidine-1-carboxamide], for which the IC50 lay in the range of 1000 to 10000 nM.

Consider `CC(C)(C)OC(=O)N1CC(S(=O)(=O)N2CCC(c3ccccc3)CC2)C1` [Compound 301, tert-butyl 3-(4-phenylpiperidin-1-yl)sulfonylaze-tidine-1-carboxylate], for which the 50% inhibitory concentration (IC50) was 100 to 1000 nM.

For `Cc1cc(Cl)ccc1C1CCN(S(=O)(=O)C2CN(C(=O)OC(C)(C)C)C2)CC1` [Compound 302, tert-butyl 3-[4-(4-chloro-2-methylphenyl)piperidin-1-yl]sulfonylaze-tidine-1-carboxylate], the IC50 fell in the range of 100 to 1000 nM.

For `CC(C)(C)OC(=O)N1CC(S(=O)(=O)N2CCC(c3ccc(C#N)cc3)CC2)C1` [Compound 303, tert-butyl 3-[4-(4-cyanophenyl)piperidin-1-yl]sulfonylaze-tidine-1-carboxylate], the IC50 fell in the range of 100 to 1000 nM.

On to `CC(C)(C)OC(=O)N1CC(S(=O)(=O)N2CCC(c3ccc(Cl)cc3)CC2)C1` [Compound 304, tert-butyl 3-[4-(4-chlorophenyl)piperidin-1-yl]sulfonylaze-tidine-1-carboxylate], for which the 50% inhibitory concentration (IC50) lay within 100 to 1000 nM.

As to `CC(C)N(CC(=O)N1CC(S(=O)(=O)N2CCC(c3ccccc3)CC2)C1)C(C)C` [Compound 306, 2-[di(propan-2-yl)amino]-1-[3-(4-phenylpiperidin-1-yl)sulfonylaze-tidin-1-yl]ethanone], the IC50 fell in the range of 100 to 1000 nM.

For the molecule `C[C@@H](C(=O)N1CC(S(=O)(=O)N2CCC(c3ccccc3)CC2)C1)N(C)C` [Compound 307, 2-(dimethylamino)-1-[3-(4-phenyl-piperidin-1-yl)sulfonylaze-tidin-1-yl]propan-1-one], the IC50 lay in the range of 1000 to 10000 nM.

For the molecule `Cc1noc(C)c1NC(=O)[C@H]1C[C@@H](S(=O)(=O)N2CCC(c3c[nH]c4ncccc34)CC2)C1` [Compound 309, cis-N-(3,5-dimethyl-1,2-oxazol-4-yl)-3-[4-(1H-pyrrolo [2,3-b]pyridin-3-yl)piperidin-1-yl]sulfonylcycl obutane-1-carboxamide], the IC50 is 10 to 100 nM.

As for `Cc1noc(C)c1NC(=O)[C@H]1C[C@H](S(=O)(=O)N2CCC(c3c[nH]c4ncccc34)CC2)C1` [Compound 310, trans-N-(3,5-dimethyl-1,2-oxazol-4-yl)-3-[4-(1H-pyrrolo [2,3-b]pyridin-3-yl)piperidin-1-yl]sulfonylcycl obutane-1-carboxamide], the IC50 was in the range of 100 to 1000 nM.

For the molecule `O=S(=O)(C1CN(c2nc(-c3ccccc3)cs2)C1)N1CCC(c2c[nH]c3ncccc23)CC1` [Compound 311, 4-phenyl-2-[3-[4-(1H-pyrrolo[2,3-b]pyridin-3-yl)piperidin-1-yl]sulfonylazetidin-1-yl]-1,3-thiazole], the IC50 fell in the range of 10 to 100 nM.

Source of the values: patent publication US10961238B2, “Modulators of hedgehog (Hh) signaling pathway” (E-THERAPEUTICS PLC, priority 2016, dated 2021).
